Results published in publication PMC12828229, “Aspergillus fumigatus PolX1 is an early ancestor of vertebrate terminal deoxynucleotidyl transferases” (Nucleic Acids Research, 2026).

Biological target: T1, AfPolX1 (Aspergillus fumigatus, UniProt Q4X1T5)
T1 construct: gene AFUA_2G08840; catalytic core (8 kDa, fingers, palm, thumb), residues 297-704 in methods, 298-704 in results; codon-optimised in pET28a(+), E. coli Rosetta 2 (DE3); N-terminal His6 tag cut off with TEV protease
T1 sequence (Q4X1T5 297-704): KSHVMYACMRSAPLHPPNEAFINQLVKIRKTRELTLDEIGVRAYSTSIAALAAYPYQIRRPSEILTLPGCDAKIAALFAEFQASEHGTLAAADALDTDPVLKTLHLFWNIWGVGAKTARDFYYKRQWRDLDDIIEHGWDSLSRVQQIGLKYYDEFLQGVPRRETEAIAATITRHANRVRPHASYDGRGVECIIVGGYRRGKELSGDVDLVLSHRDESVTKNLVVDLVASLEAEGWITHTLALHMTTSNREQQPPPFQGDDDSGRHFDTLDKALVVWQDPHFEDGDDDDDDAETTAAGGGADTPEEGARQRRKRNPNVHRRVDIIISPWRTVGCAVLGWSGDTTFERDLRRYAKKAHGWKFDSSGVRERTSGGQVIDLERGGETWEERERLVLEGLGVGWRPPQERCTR
Test: single-turnover gap-filling primer extension, denaturing gel
Type: biochemical
Conditions: 1-nt gapped 5'-phosphate DNA (D1) templating dT, 150 nM; 4 uM enzyme; 1 mM dATP; 10 mM Mg acetate; pH 7.5; 37 °C

For `Nc1ncnc2c1ncn2[C@H]1C[C@H](O)[C@@H](COP(=O)(O)OP(=O)(O)OP(=O)(O)O)O1` [dATP], the kobs was “Correct nucleotide incorporation proceeded at comparable rates for all the substrates”.
